Assay results from patent US20230303540A1 (Merck Sharp & Dohme LLC, priority 2020, published 2023).

Each compound was assayed against GST-tagged truncated human mutant G2019S LRRK2 (Homo sapiens, UniProt Q5S007, G2019S) (assay: LRRK2 G2019S Km ATP LanthaScreen assay). Details: 134 μM ATP (Km ATP), LRRKtide substrate, mean IC50 values; read-out: LRRK2 pIC50 (converted).
Type: biochemical
Protocol: Unless otherwise noted, all reactions are magnetically stirred. Unless otherwise noted, when diethyl ether is used in the experiments described below, it is Fisher ACS certified material and is stabilized with BHT. Unless otherwise noted, “concentrated” and/or “solvent removed under reduced pressure” means evaporating the solvent from a solution or mixture using a rotary evaporator or vacuum pump. Unless otherwise noted, flash chromatography is carried out on a Teledyne Isco (Lincoln, NE), Analogix (Burlington, WI), or Biotage (Stockholm, SWE) automated chromatography system using a commercially available cartridge as the column. Columns may be purchased from Teledyne Isco, Analogix, Biotage, Varian (Palo Alto, CA), or Supelco (Bellefonte, PA) and are usually filled with silica gel as the stationary phase. Reverse phase prep-HPLC conditions, where used, can be found at the end of each experimental section. Aqueous solutions were concentrated on a Genevac (Ipswich, ENG) or by freeze-drying/lyophilization. Unless otherwise noted, all LRRK2 pIC50 data presented in tables refers to the LRRK2 G2019S Km ATP LanthaScreen™ assay (Life Technologies Corp., Carlsbad, CA) that is described in the Biological Assay section.
The IC50 values reported herein were measured as follows.
Biological Assay: LRRK2 Km ATP LanthaScreen™ Assay
The LRRK2 kinase activity reported herein as IC50 values was determined with LanthaScreen™ technology from Life Technologies Corporation (Carlsbad, CA) using GST-tagged truncated human mutant G2019S LRRK2 in the presence of the fluorescein-labeled peptide substrate LRRKtide, also from Life Technologies. The data presented for the Km ATP LanthaScreen™ Assay represents mean IC50 values based on several test results and may have reasonable deviations depending on the specific conditions and reagents used. Assays were performed in the presence of 134 μM ATP (Km ATP). Upon completion, the assay was stopped and phosphorylated substrate detected with a terbium (Tb)-labeled anti-pERM antibody (cat. no. PV4898). The compound dose response was prepared by diluting a 10 mM stock of compound to a maximum concentration of 9.99 μM in 100% dimethylsulfoxide followed by custom fold serial dilution in dimethylsulfoxide nine times. Twenty nanoliters of each dilution was spotted via a Labcyte Echo onto a 384-well black-sided plate (Corning 3575) followed by 15 μl of a 1.25 nM enzyme solution in 1× assay buffer (50 mM Tris pH 8.5, 10 mM MgCl2, 0.01% Brij-35, 1 mM EGTA, 2 mM dithiothreitol, 0.05 mM sodium orthovanadate). Following a 15-minute incubation at room temperature, the kinase reaction was started with the addition of 5 μl of 400 nM fluorescein-labeled LRRKtide peptide substrate and 134 μM ATP solution in 1× assay buffer. The reaction was allowed to progress at ambient temperature for 90 minutes. The reaction was then stopped by the addition of 20 μl of TR-FRET Dilution Buffer (Life Technologies, Carlsbad, CA) containing 2 nM Tb-labeled anti-phospho LRRKtide antibody and 10 mM EDTA (Life Technologies, Carlsbad, CA). After an incubation of 1 hour at room temperature, the plate was read on an EnVision multimode plate reader (Perkin Elmer, Waltham, MA) with an excitation wavelength of 337 nm (Laser) and a reading emission at both 520 and 495 nm. Compound IC50s were interpolated from nonlinear regression best fits of the log of the final compound concentration, plotted as a function of the 520/495-nm emission ratio using Activity base. Abase uses a 4 parameter (4P) logistic fit based on the Levenberg-Marquardt algorithm.

| Structure (SMILES) | IC50 [nM] |
| --- | --- |
| CC1(N2CCN(c3cc4nc(Nc5cnn(CC6C[C@H](F)[C@@H](F)C6)c5)ncc4cc3Cl)CC2)COC1 [Ex-4.66, 6-chloro-N-(1-{[(3S,4S)-3,4-difluorocyclopentyl]methyl}-1H-pyrazol-4-yl)-7-[4-(3-methyloxetan-3-yl)piperazin-1-yl]quinazolin-2-amine] | 8.88 |
| CC(C)Nc1ccc2cnc(Nc3cnn(C4CCN(C5(C)COC5)CC4)c3)nc2c1 [Ex-4.9, N~2~-{1-[1-(3-methyloxetan-3-yl)piperidin-4-yl]-1H-pyrazol-4-yl}-N~7~-(propan-2-yl)quinazoline-2,7-diamine] | 9.16 |
| CC1(N2CCN(c3cc4nc(Nc5cnn(C6CC6)c5Cl)ncc4cc3Cl)CC2)COC1 [Ex-4.58, 6-chloro-N-(5-chloro-1-cyclopropyl-1H-pyrazol-4-yl)-7-[4-(3-methyloxetan-3-yl)piperazin-1-yl]quinazolin-2-amine] | 2.32 |
| Cc1c(Nc2cc3cc(N4CCN([C@]5(C)COC[C@@H]5O)CC4)c(Cl)cc3cn2)cnn1C1CC1 (single isomer, unassigned) [Ex-1.1, (3R,4R) or (3S,4S) 4-(4-(7-chloro-3-((1-cyclopropyl-5-methyl-1H-pyrazol-4-yl)amino)isoquinolin-6-yl)piperazin-1-yl)-4-methyltetrahydrofuran-3-ol] | 0.716 |
| Cc1cc2cnc(Nc3cnn(C4CC4(F)F)c3Cl)nc2cc1N1CCN(C2(C)COCC2O)CC1 (single isomer, unassigned) [Ex-5.5, (3S,4S) or (3R,4R) 4-(4-(2-((5-chloro-1-(2,2-(R) or (S)difluorocyclopropyl)-1H-pyrazol-4-yl)amino)-6-methylquinazolin-7-yl)piperazin-1-yl)-4-methyltetrahydrofuran-3-ol] | 0.42 |
| CC1CCN1c1cc2nc(Nc3cnn(C4CN(CC(C)(C)O)C4)c3)ncc2cc1Cl (stereo not drawn) [Ex-4.10, 1-[3-(4-{[6-chloro-7-(2-methylazetidin-1-yl)quinazolin-2-yl]amino}-1H-pyrazol-1-yl)azetidin-1-yl]-2-methylpropan-2-ol] | 34.3 |
| Cc1c(Nc2ncc3cc(Cl)c(N4CCN(C5COC(C)(C)C5)CC4)cc3n2)cnn1C1CC1 (single isomer, unassigned) [Ex-12.1] | 2.93 |
| CCC1(N2CCN(c3cc4nc(Nc5cnn(C6(C)CC6)c5Cl)ncc4cc3Cl)CC2)COC1 [Ex-4.29, 6-chloro-N-[5-chloro-1-(1-methylcyclopropyl)-1H-pyrazol-4-yl]-7-[4-(3-ethyloxetan-3-yl)piperazin-1-yl]quinazolin-2-amine] | 5.28 |
| C[C@H]1COC(=O)N1c1ccc2cnc(Nc3cnsc3)nc2c1 [Ex-8.7, (4S)-4-methyl-3-{2-[(1,2-thiazol-4-yl)amino]quinazolin-7-yl}-1,3-oxazolidin-2-one] | 5.2 |
| CC1(N2CCN(c3cc4nc(Nc5cnn6c5CCC6)ncc4cc3Cl)CC2)COC1 [Ex-4.20, 6-chloro-N-(5,6-dihydro-4H-pyrrolo[1,2-b]pyrazol-3-yl)-7-[4-(3-methyloxetan-3-yl)piperazin-1-yl]quinazolin-2-amine] | 2.59 |
| CC1(N2CCN(c3cc4nc(Nc5cnn(C6CC6(F)F)c5Cl)ncc4cc3Cl)CC2)CCOC1 (single isomer, unassigned) [Ex-3.60, (R or S) 6-chloro-N-(5-chloro-1-((S) or (R) 2,2-difluorocyclopropyl)-1H-pyrazol-4-yl)-7-(4-(3-methyltetra-hydrofuran-3-yl)piperazin-1-yl) quinazolin-2-amine] | 0.2 |
| CC(C)(O)CC(O)Cn1ncc(Nc2ncc3cc(Cl)c(N4CCC(C)(O)CC4)cc3n2)c1Cl (stereo not drawn) [Ex-6.5, 1-(5-chloro-4-{[6-chloro-7-(4-hydroxy-4-methylpiperidin-1-yl)quinazolin-2-yl]amino}-1H-pyrazol-1-yl)-4-methylpentane-2,4-diol] | 27.3 |
| CN(C)[C@@H]1CCN(c2cc3nc(Nc4cnn(CC(F)F)c4Cl)ncc3cc2Cl)C1 [Ex-1.23, 6-chloro-N-[5-chloro-1-(2,2-difluoroethyl)-1H-pyrazol-4-yl]-7-[(3R)-3-(dimethylamino)pyrrolidin-1-yl]quinazolin-2-amine] | 32.6 |
| CC1(O)CCN(c2cc3nc(Nc4cnn([C@H]5CCN(C6COC6)C[C@@H]5F)c4Cl)ncc3cc2Cl)CC1 [Ex-3.6, 1-[6-chloro-2-({5-chloro-1-[(3S,4S)-3-fluoro-1-(oxetan-3-yl)piperidin-4-yl]-1H-pyrazol-4-yl}amino)quinazolin-7-yl]-4-methylpiperidin-4-ol] | 0.625 |
| CC1(N2CCN(c3cc4cc(Nc5cnn(C6CC6)c5Cl)ncc4cc3Cl)CC2)COCC1O (single isomer, unassigned) [Ex-6.54, (3S,4S) or (3R,4R) 4-(4-(7-chloro-3-((5-chloro-1-cyclopropyl-1H-pyrazol-4-yl)amino)isoquinolin-6-yl)piperazin-1-yl)-4-methyltetrahydrofuran-3-ol] | 1.21 |
| Cc1cc2cnc(Nc3cnn(C45CC(C4)C5)c3Cl)nc2cc1N1CCN(C2(C)COCC2O)CC1 (single isomer, unassigned) [Ex-13.5, (3S,4S) or (3R, 4R)-4-(4-(2-((1-(bicyclo[1.1.1]pentan-1-yl)-5-chloro-1H-pyrazol-4-yl)amino)-6-methylquinazolin-7-yl)piperazin-1-yl)-4-methyltetrahydrofuran-3-ol] | 9.89 |
| CC1(O)CC2(CN(c3cc4nc(Nc5cnn(C6CC6)c5Cl)ncc4cc3Cl)C2)C1 [Ex-4.28, 2-{6-chloro-2-[(5-chloro-1-cyclopropyl-1H-pyrazol-4-yl)amino]quinazolin-7-yl}-6-methyl-2-azaspiro[3.3]heptan-6-ol] | 1.05 |
| Cc1c(Nc2ncc3cc(Cl)c(N4CCN(C5(C)COCC5O)CC4)cc3n2)cnn1C1CC1 (single isomer, unassigned) [Ex-6.22, (3S,4S) or (3R,4R) 4-(4-{6-chloro-2-[(1-cyclopropyl-5-methyl-1H-pyrazol-4-yl)amino]quinazolin-7-yl}piperazin-1-yl)-4-methyloxolan-3-ol] | 33.5 |
| C[C@H]1CN(c2cc3nc(Nc4cnn(C5(C)CC5)c4Cl)ncc3cc2Cl)CCN1C1COC1 [Ex-4.41, 6-chloro-N-[5-chloro-1-(1-methylcyclopropyl)-1H-pyrazol-4-yl]-7-[(3S)-3-methyl-4-(oxetan-3-yl)piperazin-1-yl]quinazolin-2-amine] | 1.91 |
| Cc1c(Nc2ncc3cc(Cl)c(N4CCN(C5COCC5O)CC4)cc3n2)cnn1C (single isomer, unassigned) [Ex-6.24, (3S,4S) or (3R,4R) 4-(4-{6-chloro-2-[(1,5-dimethyl-1H-pyrazol-4-yl)amino]quinazolin-7-yl}piperazin-1-yl)oxolan-3-ol] | 0.603 |
| CC1CN(C2CCN(c3cc4nc(Nc5cnn(C6CC6)c5Cl)ncc4cc3Cl)CC2)C1 [Ex-1.43, 6-chloro-N-(5-chloro-1-cyclopropyl-1H-pyrazol-4-yl)-7-[4-(3-methylazetidin-1-yl)piperidin-1-yl]quinazolin-2-amine] | 12.7 |
| CC1CCN1c1cc2nc(Nc3cnn(C4CCN(C5(C)COC5)CC4)c3)ncc2cc1Cl (stereo not drawn) [Ex-4.11, 6-chloro-7-(2-methylazetidin-1-yl)-N-{1-[1-(3-methyloxetan-3-yl)piperidin-4-yl]-1H-pyrazol-4-yl}quinazolin-2-amine] | 35.3 |
| CC1(N2CCN(c3cc4nc(Nc5cnn(C6(C)CC6)c5)ncc4cc3Cl)CC2)COC1 [Ex-4.16, 6-chloro-N-[1-(1-methylcyclopropyl)-1H-pyrazol-4-yl]-7-[4-(3-methyloxetan-3-yl)piperazin-1-yl]quinazolin-2-amine] | 1.12 |
| COC1CCC1n1ncc(Nc2ncc3cc(Cl)c(N4CCC(C)(O)CC4)cc3n2)c1C (single isomer, unassigned) [Ex-6.20, 1-[6-chloro-2-({1-[(1R,2R) or (1S,2S)-2-methoxycyclobutyl]-5-methyl-1H-pyrazol-4-yl}amino)quinazolin-7-yl]-4-methylpiperidin-4-ol] | 2.53 |
